Data set [1] concerns the target 5-hydroxytryptamine receptor 2A (Homo sapiens, UniProt P28223).
Description: Binding affinity to human 5HT2A receptor
The species entered for data set [2] is Mus musculus. The class given is functional, Brain.
Description: In vivo intrinsic activity at D2 receptor in sc dosed mouse brain assessed as inhibition of gamma-butyrolactone-induced increase in DOPA synthesis
For data set [3], the species on record is Mus musculus. To be noted: in vivo.
Description: Induction of catalepsy in mouse
Data set [4] is filed under the species Mus musculus. Nature of the data set: animal or person. As to conditions: po, read-out: MED.
Description: Antipsychotic activity in po dosed mouse assessed as inhibition of spontaneous locomotor activity
Data set [5] addresses T1, 5-hydroxytryptamine receptor 1A (Homo sapiens, UniProt P08908).
T1 sequence (P08908 whole entry): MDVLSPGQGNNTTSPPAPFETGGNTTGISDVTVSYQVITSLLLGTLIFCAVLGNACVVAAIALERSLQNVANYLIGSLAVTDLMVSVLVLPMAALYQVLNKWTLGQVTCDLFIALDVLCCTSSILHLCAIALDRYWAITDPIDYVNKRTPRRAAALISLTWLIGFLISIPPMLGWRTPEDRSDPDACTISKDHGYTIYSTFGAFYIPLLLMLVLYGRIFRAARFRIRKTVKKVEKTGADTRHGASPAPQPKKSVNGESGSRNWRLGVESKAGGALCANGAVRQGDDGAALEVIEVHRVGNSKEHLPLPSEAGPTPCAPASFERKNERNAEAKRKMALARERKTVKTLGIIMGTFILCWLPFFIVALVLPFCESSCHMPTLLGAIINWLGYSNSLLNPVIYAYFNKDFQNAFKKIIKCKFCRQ
Nature of the data set: biochemical. Format: cell-based, HeLa.
Description: Displacement of [3H]-8-OH-DPAT from human 5HT1A receptor expressed in HeLa cells

Data set [6] concerns the target D(2) dopamine receptor (Homo sapiens, UniProt P14416). Nature of the data set: biochemical. Format: cell-based, CHO.
Description: Displacement of [3H]Spiperone from human dopamine D2L receptor expressed in CHO cells
Data set [7] can be described thus: in vivo. To be noted: rat, po.
Description: Oral bioavailability in rat
For data set [8], the species on record is Mus musculus. Format: functional, Brain. The source holds these as a separate data set.
Description: In vivo intrinsic activity at D2 receptor in po dosed mouse brain assessed as inhibition of gamma-butyrolactone-induced increase in DOPA synthesis
The species named for data set [9] is Rattus norvegicus. The class given is functional.
For data set [10], the species on record is Rattus norvegicus. Nature of the data set: animal or person. The class given is functional. As to conditions: po.
The species entered for data set [11] is Rattus norvegicus. Kind of data set: animal or person. The class given is functional. To be noted: po. The source holds these as a separate data set.
The nature of data set [12]: in vivo. As to conditions: rat, po, 3 mg/kg.
Data set [13] can be described thus: in vivo. As to conditions: rhesus monkey, po, 3 mg/kg.
Data set [14] in a line: in vivo. To be noted: rat, po, 3 mg/kg. This is another data set of the same source.
Data set [15] in a line: in vivo. To be noted: rhesus monkey, po, 3 mg/kg. This is another data set of the same source.
A short description of data set [16]: in vivo. To be noted: rat, iv, 1 mg/kg.
A short description of data set [17]: in vivo. To be noted: rhesus monkey, iv, 1 mg/kg.
Data set [18] is described as follows: in vivo. To be noted: rat, iv, 1 mg/kg. The source holds these as a separate data set.
Description: Volume of distribution at steady state in rat at 1 mg/kg, iv and 3 mg/kg, po
Data set [19] is described as follows: in vivo. As to conditions: rhesus monkey, iv, 1 mg/kg. The source holds these as a separate data set.
Description: Volume of distribution at steady state in rhesus monkey at 1 mg/kg, iv and 3 mg/kg, po
Data set [20] in a line: in vivo. To be noted: rat, iv, 1 mg/kg. This is another data set of the same source.
Description: Half life in rat at 1 mg/kg, iv
The nature of data set [21]: in vivo. To be noted: rhesus monkey, iv, 1 mg/kg. The source holds these as a separate data set.
Description: Half life in rhesus monkey at 1 mg/kg, iv
The nature of data set [22]: in vivo. As to conditions: rat, po, 3 mg/kg. This is another data set of the same source.
Data set [23] can be described thus: in vivo. As to conditions: rhesus monkey, po, 3 mg/kg. This is another data set of the same source.

We go through 27 molecules from ChEMBL document CHEMBL1773056 (Bioorg Med Chem Lett, 2011).

A value given as a limit tells only on which side of the number the result lay.

Sequence of 5-hydroxytryptamine receptor 2A (P28223 whole entry): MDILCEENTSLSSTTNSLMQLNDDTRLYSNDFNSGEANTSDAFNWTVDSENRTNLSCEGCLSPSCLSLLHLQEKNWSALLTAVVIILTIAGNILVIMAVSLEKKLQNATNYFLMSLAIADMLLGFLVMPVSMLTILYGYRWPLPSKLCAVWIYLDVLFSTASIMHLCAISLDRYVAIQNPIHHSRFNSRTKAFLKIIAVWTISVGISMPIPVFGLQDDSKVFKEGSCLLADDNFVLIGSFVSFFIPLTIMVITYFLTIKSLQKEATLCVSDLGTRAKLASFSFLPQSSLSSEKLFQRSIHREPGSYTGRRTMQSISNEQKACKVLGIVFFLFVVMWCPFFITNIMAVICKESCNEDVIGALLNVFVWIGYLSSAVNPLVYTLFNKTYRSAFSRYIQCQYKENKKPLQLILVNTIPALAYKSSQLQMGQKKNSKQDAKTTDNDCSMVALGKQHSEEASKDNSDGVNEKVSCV
Sequence of D(2) dopamine receptor (P14416 whole entry): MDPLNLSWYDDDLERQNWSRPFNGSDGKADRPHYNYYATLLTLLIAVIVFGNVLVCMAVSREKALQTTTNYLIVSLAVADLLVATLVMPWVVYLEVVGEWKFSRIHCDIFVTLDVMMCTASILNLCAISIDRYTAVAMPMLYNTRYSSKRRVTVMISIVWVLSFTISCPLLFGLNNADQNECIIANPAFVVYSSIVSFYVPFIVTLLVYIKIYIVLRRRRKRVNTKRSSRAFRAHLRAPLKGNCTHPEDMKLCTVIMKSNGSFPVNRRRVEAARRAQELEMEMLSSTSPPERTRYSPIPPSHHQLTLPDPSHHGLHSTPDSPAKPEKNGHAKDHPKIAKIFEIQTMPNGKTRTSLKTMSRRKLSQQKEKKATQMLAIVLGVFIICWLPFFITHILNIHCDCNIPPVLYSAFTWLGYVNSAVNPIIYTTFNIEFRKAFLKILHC

The Ki is a measure of affinity in units of concentration, obtained from inhibition or displacement. Molecule `O=C1CCc2ccc(OCCCCN3CCN(c4ccc(F)c5ccccc45)CC3)nc2N1` showed a Ki in data set [1] of 11.7 nM.

Consider `O=c1ccc2ccc(OCCCCN3CCN(c4cccc5ccccc45)CC3)nc2[nH]1`, for which the “inhibition (INH)” value in data set [2] is on record as 45%. The molecule also gave an MED in [3] of more than 30 mg/kg. Further, the minimal effective dose in data set [4] worked out at 1 mg/kg.

`O=C1CCc2ccc(OCCCCN3CCN(c4ccccc4Cl)CC3)nc2N1`: the Ki in [1] worked out at 15.9 nM; in data set [5], 4.6 nM.

As to `O=C1CCc2ccc(OCCCCN3CCN(c4cccc5c4CCCC5)CC3)nc2N1`, the Ki was 0.09 nM in data set [1] and 28 nM in data set [5].

Consider `O=C1CCc2ccc(OCCCCN3CCN(c4cccc(F)c4Cl)CC3)nc2N1`, for which the Ki worked out at 31.2 nM in data set [1] and 1.7 nM in data set [5].

Turning to `Cc1c(Cl)cccc1N1CCN(CCCCOc2ccc3c(n2)NC(=O)CC3)CC1`, affinity in data set [1] was put at a Ki of 1.5 nM.

With `O=C1CCc2ccc(OCCCCN3CCN(c4cccc5cccc(F)c45)CC3)nc2N1`, the Ki in data set [6] came to 1.7 nM; in data set [1], 0.67 nM; in data set [5] it was 0.77 nM.

In the case of `O=c1ccc2ccc(OCCCCN3CCN(c4cccc(Cl)c4Cl)CC3)nc2[nH]1`, the Ki in data set [1] came out at 1.6 nM; in data set [5], 14 nM.

For the molecule `O=C1CCc2ccc(OCCCCN3CCN(c4cccc5c4OCCC5)CC3)nc2N1`, the Ki in [6] was determined as 0.71 nM; in [1], 0.19 nM; in data set [5], 1.1 nM.

One may read the bioavailability as dose-corrected exposure relative to a reference, in per cent. In the case of `O=C1CCc2ccc(OCCCCN3CCN(c4cccc(Cl)c4Cl)CC3)nc2N1`, the Ki amounted to 0.13 nM in data set [1] and 17.7 nM in data set [5]. In [7], this molecule showed a bioavailability of 23%.

The molecule `Cc1cccc(N2CCN(CCCCOc3ccc4c(n3)NC(=O)CC4)CC2)c1Cl` had a Ki in data set [1] of 0.5 nM.

In turn, `Cc1cccc(N2CCN(CCCCOc3ccc4c(n3)NC(=O)CC4)CC2)c1C` registered a Ki in data set [1] of 0.35 nM.

On to `O=C1CCc2ccc(OCCCCN3CCN(c4cccc(Cl)c4F)CC3)nc2N1`, for which the Ki in [1] was determined as 10.4 nM; in data set [5], 1.2 nM.

On to `O=C1CCc2ccc(OCCCCN3CCN(c4cccc5c4CCC5)CC3)nc2N1`, for which the results for the Ki in data set [1] and in data set [5] were 0.16 nM and 6.3 nM, respectively.

For the molecule `O=c1ccc2cnc(OCCCCN3CCN(c4cccc(Cl)c4Cl)CC3)nc2[nH]1`, the Ki came out at 3.2 nM in data set [1] and 52.7 nM in data set [5].

In the case of `O=c1ccc2cnc(OCCCCN3CCN(c4cccc(Cl)c4Cl)CC3)cc2[nH]1`, the figures for the Ki in data set [1] and in data set [5] were 2.9 nM and 40.7 nM, respectively.

Consider `O=C1CCc2ccc(OCCCCN3CCN(c4cccc(C(F)(F)F)c4Cl)CC3)nc2N1`, for which the Ki in [1] is 12 nM. That is a double-digit nanomolar value.

For the molecule `O=C1CCc2ccc(OCCCCN3CCN(c4cccc(Cl)c4C(F)(F)F)CC3)nc2N1`, the Ki in data set [6] was determined as 3 nM; in [1], 1.4 nM; in data set [5] it was 3.5 nM.

Usually inhibition in vivo stands for the percentage by which the read-out fell short of the control. In general, Cmax refers to the maximum level reached in the sampled fluid or tissue. Usually Tmax stands for the time at which the peak concentration occurs. In general, clearance refers to a measure of how efficiently the substance is removed, as volume per time. The Vd is a proportionality between amount in the body and measured concentration, not a real space. Broadly, the half-life is the time needed for the level to fall by half in the phase considered. Lower therefore signals fast loss. In the case of `O=C1CCc2ccc(OCCCCN3CCN(c4cccc5ccccc45)CC3)nc2N1` [PF-00217830], the Ki in data set [1] stood at 0.14 nM; in data set [5], 3.7 nM. Moreover, the “inhibition (INH)” value came to 46% in data set [8] and 78% in [9]. Further, 0.3 mg/kg produced 31% inhibition in vivo in [10]. Besides, in [11], the inhibition in vivo at 1 mg/kg amounted to 78%. Besides, the MED in data set [3] was more than 10 mg/kg. In addition, the Cmax was 202 ng/mL in [12] and 96 ng/mL in data set [13]. The figures for the Tmax in [14] and in [15] were 1.2 h and 5 h, respectively. Also, the clearance in data set [16] came to 14.9 mL/min/kg; in [17] it was 5.8 mL/min/kg. The Vd in data set [18] stood at 1.1 L/kg; in data set [19], 2.6 L/kg. The half-life in [20] was 6.8 h; in [21], 13.6 h. The results for the bioavailability in data set [22] and in data set [23] were 19.2% and 20.5%, respectively. In addition, the minimal effective dose in data set [4] is 0.3 mg/kg.

As for `O=C1CCc2ccc(OCCCCN3CCN(c4c(F)ccc5ccccc45)CC3)nc2N1`, the Ki in data set [1] came to 6.7 nM; in [5], 0.84 nM.

On to `O=C1CCc2ccc(OCCCCN3CCN(c4cccc5c(F)cccc45)CC3)nc2N1`, for which the Ki worked out at 3.3 nM in data set [1] and 3 nM in data set [5].

For `O=C1CCc2ccc(CCCCCN3CCN(c4cccc(Cl)c4Cl)CC3)nc2N1`, the Ki came out at 0.79 nM in data set [1] and 11.4 nM in data set [5]. Further, the bioavailability in data set [7] is 6%.

Regarding `O=C1CCc2ccc(OCCCCN3CCN(c4cc(F)cc5ccccc45)CC3)nc2N1`, the values for the Ki in [1] and in data set [5] were 1.9 nM and 3.3 nM, respectively.

On to `O=C1CCc2ccc(OCCCCN3CCN(c4cccc5c4CCCO5)CC3)nc2N1`, for which the Ki came out at 1 nM in [6], 1.3 nM in data set [1] and 0.78 nM in [5].

As for `O=C1CCc2ccc(OCCCCN3CCN(c4cccc5cc(F)ccc45)CC3)nc2N1`, the Ki in data set [1] came out at 3.5 nM; in [5], 1.2 nM.

As to `Cc1ccccc1N1CCN(CCCCOc2ccc3c(n2)NC(=O)CC3)CC1`, affinity in [1] was put at a Ki of 50.9 nM. In other words, the double-digit nanomolar range.

For `O=C1CCc2ccc(OCCCCN3CCN(c4cccc5ccc(F)cc45)CC3)nc2N1`, the values for the Ki in [6], in data set [1] and in data set [5] were 1.2 nM, 0.28 nM and 1.1 nM, respectively.
